Data from article PMC7481482, “Development of Anthraquinone Derivatives as Ectonucleoside Triphosphate Diphosphohydrolase (NTPDase) Inhibitors With Selectivity for NTPDase2 and NTPDase3” (Frontiers in Pharmacology, 2020).

Experiments:
human NTPDase2 [1] = target: T1, human NTPDase2 (Homo sapiens, UniProt Q9Y5L3); experiment: Malachite green assay, human NTPDase2; format: biochemical; settings: for IC50 / inhibition at 2 µM: 100 µM ATP, COS-7 membrane preparation; for IC50: read-out: IC50 ± SEM, NTPDase2; for inhibition at 2 µM: 2 μM compound, read-out: % inhibition at 2 μM concentration, NTPDase2
T1 construct: expressed in transfected cells; host or cells: COS-7 cells (membrane preparation)
T1 sequence (Q9Y5L3 1-495): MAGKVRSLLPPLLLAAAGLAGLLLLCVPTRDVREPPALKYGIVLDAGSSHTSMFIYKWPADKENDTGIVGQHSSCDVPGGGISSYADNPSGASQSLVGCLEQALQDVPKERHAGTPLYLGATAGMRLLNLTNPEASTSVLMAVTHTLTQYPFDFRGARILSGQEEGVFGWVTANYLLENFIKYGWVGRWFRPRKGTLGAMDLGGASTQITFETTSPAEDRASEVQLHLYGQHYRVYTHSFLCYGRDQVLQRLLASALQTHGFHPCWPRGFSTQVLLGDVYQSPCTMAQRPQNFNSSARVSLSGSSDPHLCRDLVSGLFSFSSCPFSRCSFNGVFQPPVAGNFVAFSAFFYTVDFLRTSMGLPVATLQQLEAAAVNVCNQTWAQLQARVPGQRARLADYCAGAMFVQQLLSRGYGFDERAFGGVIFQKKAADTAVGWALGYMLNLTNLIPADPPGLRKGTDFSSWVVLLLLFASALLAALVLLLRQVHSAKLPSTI
Method in brief: (§1)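 COS-7 membranes expressing each NTPDase were preincubated with compound for 5 min at 37 °C, pH 7.4 HEPES buffer with 2 mM CaCl2/1 mM MgCl2. ATP was 50 µM for NTPDase1 and 100 µM for -2, -3, -8; reaction ran 15 min at 37 °C. Released phosphate read by malachite green at 600 nm; screen at 2 µM, IC50 over 0.03–30 µM in 2% DMSO.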

human NTPDase3 = target: T2, human NTPDase3 (Homo sapiens, UniProt O75355); experiment: Malachite green assay, human NTPDase3; format: biochemical; settings: 100 µM ATP, COS-7 membrane preparation; for inhibition at 2 µM: 2 μM compound, read-out: % inhibition at 2 μM concentration, NTPDase3
T2 construct: expressed in transfected cells; host or cells: COS-7 cells (membrane preparation)
T2 sequence (O75355 1-529): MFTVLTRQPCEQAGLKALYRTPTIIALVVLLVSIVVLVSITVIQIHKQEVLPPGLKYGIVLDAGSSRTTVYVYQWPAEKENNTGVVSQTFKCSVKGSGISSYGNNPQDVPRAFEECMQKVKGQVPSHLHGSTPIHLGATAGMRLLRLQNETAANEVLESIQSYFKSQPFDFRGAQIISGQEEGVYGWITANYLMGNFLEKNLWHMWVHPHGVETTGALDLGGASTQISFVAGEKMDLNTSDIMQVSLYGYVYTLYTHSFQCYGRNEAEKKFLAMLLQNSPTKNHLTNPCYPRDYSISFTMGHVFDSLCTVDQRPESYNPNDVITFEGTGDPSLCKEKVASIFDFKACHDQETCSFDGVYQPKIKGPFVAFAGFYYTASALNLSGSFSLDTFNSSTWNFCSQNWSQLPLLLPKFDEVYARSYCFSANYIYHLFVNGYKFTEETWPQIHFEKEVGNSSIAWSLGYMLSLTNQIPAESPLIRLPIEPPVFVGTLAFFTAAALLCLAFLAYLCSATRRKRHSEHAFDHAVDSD
Method in brief: as §1

rat CD73 = system: rat CD73; parameters: method as in Baqi et al., 2010; settings: 1 mM concentration; ref Baqi et al., 2010; cited from earlier work
human NTPDase1 = target: T3, human NTPDase1 (Homo sapiens, UniProt P49961); experiment: Malachite green assay, human NTPDase1; format: biochemical; settings: 2 μM compound; 50 µM ATP; COS-7 membrane preparation; read-out: % inhibition at 2 μM concentration, NTPDase1
T3 construct: expressed in transfected cells; host or cells: COS-7 cells (membrane preparation)
T3 sequence (P49961 1-510): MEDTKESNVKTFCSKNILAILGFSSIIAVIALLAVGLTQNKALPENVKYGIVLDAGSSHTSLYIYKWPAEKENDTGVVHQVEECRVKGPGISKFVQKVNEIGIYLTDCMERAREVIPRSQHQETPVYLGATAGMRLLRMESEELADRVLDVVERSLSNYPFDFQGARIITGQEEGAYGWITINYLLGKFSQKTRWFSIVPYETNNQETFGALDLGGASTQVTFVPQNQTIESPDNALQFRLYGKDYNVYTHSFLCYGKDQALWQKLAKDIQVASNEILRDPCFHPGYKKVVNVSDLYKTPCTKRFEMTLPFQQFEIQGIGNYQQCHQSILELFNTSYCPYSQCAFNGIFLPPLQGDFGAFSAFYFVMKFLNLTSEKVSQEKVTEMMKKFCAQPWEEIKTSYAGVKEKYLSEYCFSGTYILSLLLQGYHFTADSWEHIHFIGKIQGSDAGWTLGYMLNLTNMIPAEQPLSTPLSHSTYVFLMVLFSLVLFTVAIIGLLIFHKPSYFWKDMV
Method in brief: as §1

human NTPDase8 [2] = target: T4, human NTPDase8 (Homo sapiens, UniProt Q5MY95); experiment: Malachite green assay, human NTPDase8; format: biochemical; settings: 2 μM compound; 100 µM ATP; COS-7 membrane preparation; read-out: % inhibition at 2 μM concentration, NTPDase8
T4 construct: expressed in transfected cells; host or cells: COS-7 cells (membrane preparation)
T4 sequence (Q5MY95 1-495): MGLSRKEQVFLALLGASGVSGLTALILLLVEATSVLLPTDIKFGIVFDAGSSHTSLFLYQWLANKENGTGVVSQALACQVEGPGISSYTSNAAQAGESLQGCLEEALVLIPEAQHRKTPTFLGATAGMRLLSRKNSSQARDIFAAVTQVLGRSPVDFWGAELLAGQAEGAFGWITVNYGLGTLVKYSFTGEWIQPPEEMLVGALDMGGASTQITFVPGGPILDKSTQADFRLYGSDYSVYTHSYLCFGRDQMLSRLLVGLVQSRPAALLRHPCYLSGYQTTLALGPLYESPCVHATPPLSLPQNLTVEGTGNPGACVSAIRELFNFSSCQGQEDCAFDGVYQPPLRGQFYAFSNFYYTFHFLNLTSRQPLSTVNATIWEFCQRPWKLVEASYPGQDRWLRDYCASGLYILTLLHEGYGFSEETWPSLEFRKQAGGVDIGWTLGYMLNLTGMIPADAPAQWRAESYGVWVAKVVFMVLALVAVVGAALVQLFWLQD
Method in brief: as §1

rat NTPDase3 = settings: cited from earlier work; for IC50: rat enzyme, ref Baqi et al., 2009b
rat NTPDase1 = settings: cited from earlier work; for IC50: rat enzyme, ref Baqi et al., 2009b
rat NTPDase2 = settings: cited from earlier work; for IC50: rat enzyme, ref Baqi et al., 2009b
NTPDase1 = target: NTPDase1; parameters: method as in Lecka et al., 2013; settings: ref Lecka et al., 2013; cited from earlier work
human NTPDase2 [3] = target: T1, human NTPDase2; settings: ref Lévesque et al., 2007; cited from earlier work
human NTPDase8 [4] = target: T4, human NTPDase8; parameters: method as in Lévesque et al., 2007; settings: ref Lévesque et al., 2007; cited from earlier work

Nc1c(S(=O)(=O)O)cc(Nc2cc3ccccc3c3ccccc23)c2c1C(=O)c1ccccc1C2=O [Compound 20, 1-amino-4-(9-phenanthrylamino)-9,10-dioxo-9,10-dihydroanthracene-2-sulfonate]
IC50 (human NTPDase2 [1]): 539 ± 290 nM
inhibition type, NTPDase2 (human NTPDase2 [1]; Hanes-Woolf plot, 25-200 µM ATP, inhibitor 0, 0.25, 0.5, 1 µM): non-competitive
inhibition at 2 µM (human NTPDase3): -5%
% inhibition of CD73 at 1 mM concentration (rat CD73): 58%
inhibition at 2 µM (human NTPDase1): -7%
inhibition at 2 µM (human NTPDase8 [2]): 6%

Nc1c(S(=O)(=O)[O-])cc(Nc2ccc(Sc3ccc(Cl)cc3)cc2)c2c1C(=O)c1ccccc1C2=O.[Na+] [Compound 45, Sodium 1-amino-4-[4-(4-chlorophenylthio)phenylamino]-9,10-dioxo-9,10-dihydroanthracene-2-sulfonate]
IC50 (human NTPDase2 [1]): 1080 ± 80 nM
inhibition at 2 µM (human NTPDase3): 42%
inhibition at 2 µM (human NTPDase1): 52%
melting point: > 300 °C
inhibition at 2 µM (human NTPDase8 [2]): 21%

Nc1c(S(=O)(=O)[O-])cc(Nc2cccc(CC(=O)O)c2)c2c1C(=O)c1ccccc1C2=O.[Na+] [Compound 30, Sodium 1-amino-4-(3-(carboxymethyl)phenylamino)-9,10-dioxo-9,10-dihydroanthracene-2-sulfonate]
inhibition at 2 µM (human NTPDase2 [1]): 7%
IC50 (human NTPDase3; read-out: IC50 ± SEM, NTPDase3): 1520 ± 280 nM
inhibition at 2 µM (human NTPDase1): -6%
melting point: > 300 °C
inhibition at 2 µM (human NTPDase8 [2]): -11%

Nc1c(S(=O)(=O)O)cc(Nc2ccc3ccccc3c2)c2c1C(=O)c1ccccc1C2=O [Compound 18]
inhibition at 2 µM (human NTPDase2 [1]): 34%
inhibition at 2 µM (human NTPDase3): -9%
IC50 (rat NTPDase3): 2220 nM
IC50 (rat NTPDase1): 328 nM
inhibition at 2 µM (human NTPDase1): -8%
IC50 (rat NTPDase2): 19100 nM
inhibition at 2 µM (human NTPDase8 [2]): 3%

Cc1cccc(Nc2cc(S(=O)(=O)O)c(N)c3c2C(=O)c2ccccc2C3=O)c1 [Compound 6, reference compound]
inhibition at 2 µM (human NTPDase2 [1]): 22%
inhibition at 2 µM (human NTPDase3): 1%
IC50 (rat NTPDase3): 19100 nM
IC50 (rat NTPDase1): 51500 nM
inhibition at 2 µM (human NTPDase1): -4%
IC50 (rat NTPDase2): 12800 nM
inhibition at 2 µM (human NTPDase8 [2]): -21%

CCCCSc1nc2c(N)ncnc2n1[C@@H]1O[C@H](COP(=O)(O)OP(=O)(O)OP(=O)(O)O)[C@@H](O)[C@H]1O [8-BuS-ATP]
Ki (NTPDase1): 800 nM

Nc1c(S(=O)(=O)[O-])cc(Nc2cccc(I)c2)c2c1C(=O)c1ccccc1C2=O.[Na+] [Compound 23, Sodium 1-amino-4-(3-iodophenylamino)-9,10-dioxo-9,10-dihydroanthracene-2-sulfonate]
inhibition at 2 µM (human NTPDase2 [1]): 21%
inhibition at 2 µM (human NTPDase3): 2%
inhibition at 2 µM (human NTPDase1): 0%
melting point: > 300 °C
inhibition at 2 µM (human NTPDase8 [2]): 4%

CCN(CC)c1ncnc2c1ncn2[C@@H]1O[C@H](COP(=O)(O)OP(=O)(O)C(Br)(Br)P(=O)(O)O)[C@@H](O)[C@H]1O [ARL67156]
inhibition of human NTPDase2 (in words) (human NTPDase2 [3]): does not inhibit
inhibition of human NTPDase8 (in words) (human NTPDase8 [4]): does not inhibit

[TiW11CoO40]^8- [Compound 9, reference compound]
inhibition of rat NTPDase3 (concentration range in words) (rat NTPDase3; ref Müller et al., 2006): submicromolar concentration range
inhibition of rat NTPDase1 (concentration range in words) (rat NTPDase1; ref Müller et al., 2006): submicromolar concentration range
inhibition of rat NTPDase2 (concentration range in words) (rat NTPDase2; ref Müller et al., 2006): submicromolar concentration range
